Measured values: patent publication US7582677B2, “Lignan formulations” (Hormos Medical Corp., priority 2002, dated 2009)

System: microsomal lipids
Assay: Inhibition of lipid peroxidation (microsomal lipids, tert-butylhydroperoxide initiated, chemiluminescence detection)
Assay type: biochemical
Conditions: peroxidation of microsomal lipids initiated by tert-butylhydroperoxide
From the text: In this model, lignan compounds were compared to the well known, potent antioxidant Trolox, which is a water-soluble derivative of vitamin E.

Molecule | IC50 [µM]
COc1cc(CC2COC(=O)C2(O)Cc2ccc(O)c(OC)c2)ccc1O (centres unmarked) [Nortrachelogenin] | 0.15
COc1cc(CC2C(=O)OCC2C(=O)c2ccc(O)c(OC)c2)ccc1O (centres unmarked) [Oxomatairesinol] | 0.11
HMR-benzoate | 0.12
COc1cc(C[C@@H](CO)[C@H](CO)Cc2ccc(O)c(OC)c2)ccc1O [Secoisolariciresinol] | 0.09
COc1cc(C[C@H]2CO[C@H](c3ccc(O)c(OC)c3)[C@H]2CO)ccc1O [Lariciresinol] | 0.07
CCCC(=O)Oc1ccc(C[C@H]2COC(=O)[C@@H]2Cc2ccc(OC(=O)CCC)c(OC)c2)cc1OC [Matairesinoibutyrate] | 0.35
HMR-butyrate | 0.1
Cc1c(C)c2c(c(C)c1O)CCC(C)(C(=O)O)O2 (centres unmarked) [Trolox, reference compound] | 0.22

Now those with a lower IC50, led by results:

IC50 [µM] | Molecule
0.067 | α-Conidendrin
0.06 | COc1cc(C[C@H]2C(=O)OC[C@@H]2[C@H](O)c2ccc(O)c(OC)c2)ccc1O [Hydroxymatairesinol (HMR), Hydroxymatairesinol]
0.054 | COc1cc(C[C@H]2COC(=O)[C@@H]2Cc2ccc(O)c(OC)c2)ccc1O [Matairesinol]
